# Biological target: Transcription factor p65 (Homo sapiens) (UniProt Q04206)
# Experiment: Inhibition of NF-kappaB DNA binding by EMSA
# Sequence of Transcription factor p65 (Homo sapiens) (Q04206 whole entry): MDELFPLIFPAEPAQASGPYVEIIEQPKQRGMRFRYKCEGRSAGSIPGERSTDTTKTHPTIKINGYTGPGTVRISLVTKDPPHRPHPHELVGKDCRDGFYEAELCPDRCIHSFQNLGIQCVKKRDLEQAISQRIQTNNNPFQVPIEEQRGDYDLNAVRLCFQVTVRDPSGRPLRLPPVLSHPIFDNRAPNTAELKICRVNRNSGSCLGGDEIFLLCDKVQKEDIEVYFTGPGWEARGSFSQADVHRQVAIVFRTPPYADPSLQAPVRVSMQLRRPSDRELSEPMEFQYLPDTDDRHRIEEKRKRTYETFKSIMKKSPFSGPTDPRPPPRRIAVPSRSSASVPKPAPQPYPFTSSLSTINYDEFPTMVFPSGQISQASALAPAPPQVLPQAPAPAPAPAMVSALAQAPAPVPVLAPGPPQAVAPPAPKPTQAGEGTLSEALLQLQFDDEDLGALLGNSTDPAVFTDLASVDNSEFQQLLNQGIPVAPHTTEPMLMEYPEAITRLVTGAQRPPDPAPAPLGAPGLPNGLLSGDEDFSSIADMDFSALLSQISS
row,Structure (SMILES),IC100 [µM]
1,C=C1C(=O)O[C@H]2C[C@H](C)C3=C(C[C@H]12)[C@@H](C)CC3=O,20
2,C=C1C(=O)O[C@@H]2[C@H]3C(C)=CC[C@H](O)[C@]3(C)CC[C@@H]12,300
3,C=C1C(=O)O[C@@H]2C3O[C@]3(C)CC/C=C(\C)CC[C@@H]12 (stereo not given in full),20
4,C=C(C)C(=O)O[C@H]1C/C(C)=C/C(=O)/C=C(/C)[C@H](O)[C@H]2OC(=O)C(=C)[C@@H]21,10
5,C=C(C)C(=O)O[C@@H]1/C=C(/C=O)CCCC(=C)[C@H](O)[C@H]2OC(=O)C(=C)[C@@H]21,5
6,C=C1C(=O)O[C@@H]2[C@H]3C(C)=CC[C@@H](O)[C@]3(C)CC[C@@H]12,100
7,C=C1C(=O)O[C@@H]2[C@H]3C(C)=CC[C@H]3[C@](C)(O)C[C@H](O)[C@@H]12,100
8,C=C(CO)C(=O)OC/C1=C\C[C@@H]2C(=C)C(=O)O[C@H]2C/C(CO)=C/CC1,20
9,C=C1C(=O)O[C@@H]2/C=C(/CO)C3=CC(=O)[C@@](C)(C[C@@H](OC(=O)/C(C)=C/C)[C@@H]12)O3,5
10,C=C1[C@@H]2[C@H]3OC(=O)C(=C)[C@@H]3CC[C@](C)(O)[C@@H]2C[C@@H]1O,200
11,C=C1C(=O)O[C@H]2C/C(CO)=C/CC/C(COC(=O)C(C)CC)=C/C[C@H]12 (stereo not given in full),50
12,C=C1C(=O)C[C@H]2C(=C)C(=O)O[C@@H]2/C=C(\COC(=O)C(C)C)CC[C@@H]1OC,25
13,C=C1C(=O)O[C@H]2C/C(CO)=C/CC/C(COC(=O)C(C)C)=C/C[C@H]12,50
14,C=C(C)C(=O)O[C@H]1[C@H]2C(=C)C(=O)O[C@@H]2[C@@H](O)C(=C)CC/C=C(/C=O)[C@@H]1OC(C)=O,10
15,C=C(C)C(=O)O[C@@H]1CC(C)=C2C(=O)C=C(C)[C@@H]2[C@H]2OC(=O)C(=C)[C@@H]21,10
16,C=C1C(=O)O[C@@H]2C[C@@]3(C)[C@H](O)CC[C@](O)(COC(=O)C(C)C)[C@@H]3C[C@H]12,200
17,C=C1C(=O)O[C@@H]2C[C@@H](C)[C@@H]3[C@@H](OC(C)=O)C[C@@H](O)[C@@]3(C)[C@@H](O)[C@H]12,200
18,C=C1C(=O)O[C@@H]2C[C@@H](C)[C@@H]3C=CC(=O)[C@@]3(C)[C@@H](OC(=O)C(C)C)[C@H]12,20

# Second part, the molecule after the results:
row,IC100 [µM],Structure (SMILES)
1,5,C=C(C)C(=O)O[C@@H]1/C=C(/C=O)CCC[C@@]2(CO2)[C@H](O)[C@H]2OC(=O)C(=C)[C@@H]21
2,5,C=C(C)C(=O)O[C@H]1/C(C=O)=C\CC/C(C)=C/[C@H]2OC(=O)C(=C)[C@@H]2[C@@H]1O
3,10,C=C(C)C(=O)O[C@H]1[C@H]2C(=C)C(=O)O[C@@H]2/C=C(\C)CC/C=C(/C=O)[C@@H]1O
4,20,C=C(C)C(=O)O[C@H]1C[C@@]2(C)OC(=CC2=O)/C(CO)=C\[C@H]2OC(=O)C(=C)[C@H]12
5,50,C=C1C(=O)O[C@@H]2/C=C(/C)[C@]3(O)O[C@](C)(C[C@@H](OC(=O)/C(C)=C\C)[C@@H]12)C[C@@H]3O
6,50,C=C1C(=O)O[C@@H]2C[C@@H](C)[C@@H]3[C@H](OCC)CC(=O)[C@@]3(C)[C@H](OC(C)=O)[C@H]12
7,50,C=C1C(=O)O[C@H]2/C=C(\C)CC/C=C(/C)C(=O)[C@H](OC(=O)[C@@]3(C)O[C@H]3C)[C@@H]12
8,200,C=C1C(=O)O[C@@H]2C[C@H](C)[C@@]3(O)CC[C@@](C)(C[C@@H](OC(=O)C(C)C)[C@@H]12)O3
9,10,C=C1C(=O)O[C@H]2C[C@]3(C)O[C@@H]3C[C@@H](OC(C)=O)C3=C[C@@H](OC3=O)[C@H]12
10,50,C=C(C)C(=O)O[C@@H]1C[C@]2(C)CC[C@@](O)(O2)/C(C)=C\[C@H]2OC(=O)C(=C)[C@@H]21
11,10,C=C(C)C(=O)O[C@H]1C/C(C)=C\[C@@]2(OC)C=C(C)[C@H](O2)[C@H]2OC(=O)C(=C)[C@@H]21
12,10,C=C1C(=O)O[C@H]2[C@H]1[C@H](OC(=O)/C(C)=C\C)C[C@@]1(C)OC(=CC1=O)C(=C)[C@@H]2O

# Reference: ChEMBL document CHEMBL1146082, “Development of a structural model for NF-kappaB inhibition of sesquiterpene lactones using self-organizing neural networks” (J Med Chem, 2006)
